Laboratory results as given in article PMC7997032, “Organic synthesis and anti-influenza A virus activity of cyclobakuchiols A, B, C, and D” (PLoS ONE, 2021).
Values joined by “and” are separate entries in the source; they are usually repeats but may differ in a detail not shown here. Equal values may be shown once.

Tested on: MDCK cells
Assay: MTT assay (cytotoxicity against MDCK cells)
Type: cell-based, canine
Conditions: MDCK cells; for MTT, DMSO as 100 (DMSOを 100として), ave / MTT 72h AVE (DMSO = 100): 72h; for MTT, DMSO as 100 (DMSOを 100として), ave: mean of 5 wells (200409 #1 and #3); for MTT 72h AVE (DMSO = 100): summary AVE; for MTT 24h, AVE (DMSO as 100) / MTT 24h, 570-650nm, DMSO as 100, ave: mean of 5 wells from 3 experiments; for MTT 24h, AVE (DMSO as 100): relative to DMSO = 100; for MTT 24h, 570-650nm, DMSO as 100, single replicate: individual wells (200331; 200403 #2 1,2; 200403 #3 1,2); for 570-650nm (MTT absorbance, single wells) / 570-650nm ave (mean MTT absorbance of 5 wells) / MTT absorbance with DMSO as 100 (DMSOを 100として), single wells: MTT 72h; for 570-650nm (MTT absorbance, single wells): experiments #1-#3, duplicate wells; for MTT absorbance with DMSO as 100 (DMSOを 100として), single wells: relative to mean of DMSO
Description: 1–5 (0.8–100 μM) were prepared in DMSO (100 μM, 1%; 50 μM, 0.5%; 25 μM, 0.25%; 12.5 μM, 0.125%; 6.3 μM, 0.063%; 3.1 μM, 0.031%; 1.6 μM, 0.016%; 0.8 μM, 0.008%) and mixed with infection medium (DMEM supplemented with 1% bovine serum albumin (BSA; Wako), P/S and 4 mM L-glutamine). The resulting mixture was added to the cells and incubated for 24 or 72 h at 37°C in the presence of 5% CO2. After incubation, cell viability was determined using an MTT cell count kit (Nacalai Tesque) according to the manufacturer’s instructions, as previously described.

[1] = 3.13uM (3.125uM in summary block)

C=C[C@]1(C)CC[C@H](C(C)(C)O)[C@@H](c2ccc(O)cc2)C1 [Cyclo. C]
MTT, DMSO as 100 (DMSOを 100として), ave (0.78uM): 97.7369 | MTT, DMSO as 100 (DMSOを 100として), ave (1.56uM): 116.194 | MTT, DMSO as 100 (DMSOを 100として), ave (3.125uM): 124.106 | MTT 72h AVE (DMSO = 100) (6.25 (uM)): 130.219 | MTT 72h AVE (DMSO = 100) (12.5 (uM)): 123.122 | MTT 72h AVE (DMSO = 100) (25 (uM)): 141.455 | MTT 72h AVE (DMSO = 100) (50 (uM)): 116.495 | MTT 72h AVE (DMSO = 100) (100 (uM)): 142.83 | MTT 24h, AVE (DMSO as 100) (0.78 uM): 97.4262 | MTT 24h, AVE (DMSO as 100) (1.56 uM): 89.4582 | MTT 24h, 570-650nm, DMSO as 100, single replicate (3.125uM): 98.8583 and 80.6936 and 68.9227 and 107.532 and 92.5261 | MTT 24h, 570-650nm, DMSO as 100, ave (3.125uM): 89.7067 | MTT 24h, 570-650nm, DMSO as 100, single replicate (6.25uM): 105.442 and 92.9243 and 77.243 and 111.801 and 97.5139 | MTT 24h, 570-650nm, DMSO as 100, ave (6.25uM): 96.9849 | MTT 24h, 570-650nm, DMSO as 100, single replicate (12.5uM): 112.407 and 88.505 and 78.5484 and 110.111 and 102.316 | MTT 24h, 570-650nm, DMSO as 100, ave (12.5uM): 98.3774 | MTT 24h, 570-650nm, DMSO as 100, single replicate (25uM): 89.9468 and 93.8621 and 86.7762 and 109.435 and 109.619 | MTT 24h, 570-650nm, DMSO as 100, ave (25uM): 97.9279 | MTT 24h, 570-650nm, DMSO as 100, single replicate (50uM): 107.424 and 104.395 and 78.3927 and 112.047 and 113.734 | MTT 24h, 570-650nm, DMSO as 100, ave (50uM): 103.198 | MTT 24h, 570-650nm, DMSO as 100, single replicate (100uM): 113.671 and 119.568 and 104.628 and 127.474 and 126.723 | MTT 24h, 570-650nm, DMSO as 100, ave (100uM): 118.413 | 570-650nm (MTT absorbance, single wells) (0.78uM): 0.9938 and 0.7395 and 0.7311 and 0.6372 and 0.8862 and 0.7504 | 570-650nm (MTT absorbance, single wells) (1.56uM): 0.9464 and 0.9776 and 0.7533 and 0.5791 and 0.9528 and 0.9569 | 570-650nm (MTT absorbance, single wells) [1]: 0.9669 and 0.8575 and 0.7479 and 0.8256 and 0.9 and 0.8489 | 570-650nm ave (mean MTT absorbance of 5 wells) (6.25uM): 0.8907 | 570-650nm (MTT absorbance, single wells) (6.25uM): 0.8518 and 0.8346 and 0.7398 and 1.0173 and 1.01 and 0.9632 | MTT absorbance with DMSO as 100 (DMSOを 100として), single wells (6.25uM): 122.018 and 108.158 and 148.728 and 147.661 and 124.532 | 570-650nm ave (mean MTT absorbance of 5 wells) (12.5uM): 0.98 | 570-650nm (MTT absorbance, single wells) (12.5uM): 0.9561 and 0.8827 and 0.8467 and 1.0013 and 1.1241 and 1.0452 | MTT absorbance with DMSO as 100 (DMSOを 100として), single wells (12.5uM): 125.798 and 106.375 and 131.313 and 141.226 and 110.898 | 570-650nm ave (mean MTT absorbance of 5 wells) (25uM): 1.064 | 570-650nm (MTT absorbance, single wells) (25uM): 0.9926 and 0.9592 and 0.9724 and 1.0619 and 1.1012 and 1.2247 | MTT absorbance with DMSO as 100 (DMSOを 100として), single wells (25uM): 141.191 and 129.291 and 162.837 and 146.417 and 127.536 | 570-650nm ave (mean MTT absorbance of 5 wells) (50uM): 1.063 | 570-650nm (MTT absorbance, single wells) (50uM): 1.1675 and 1.0763 and 1.0296 and 0.8397 and 1.1252 and 1.245 | MTT absorbance with DMSO as 100 (DMSOを 100として), single wells (50uM): 92.0098 and 112.818 and 136.42 and 123.293 and 117.935 | 570-650nm ave (mean MTT absorbance of 5 wells) (100uM): 1.345 | 570-650nm (MTT absorbance, single wells) (100uM): 1.4551 and 1.3837 and 1.3254 and 1.1438 and 1.3954 and 1.4754 | MTT absorbance with DMSO as 100 (DMSOを 100として), single wells (100uM): 121.487 and 140.775 and 156.707 and 148.21 and 146.968

C=C[C@]1(C)CC[C@@H](C(C)(C)O)[C@H](c2ccc(O)cc2)C1 [Cyclo. D]
MTT, DMSO as 100 (DMSOを 100として), ave (0.78uM): 98.8071 | MTT, DMSO as 100 (DMSOを 100として), ave (1.56uM): 117.006 | MTT, DMSO as 100 (DMSOを 100として), ave (3.125uM): 147.657 | MTT 72h AVE (DMSO = 100) (6.25 (uM)): 128.371 | MTT 72h AVE (DMSO = 100) (12.5 (uM)): 127.934 | MTT 72h AVE (DMSO = 100) (25 (uM)): 145.717 | MTT 72h AVE (DMSO = 100) (50 (uM)): 126.261 | MTT 72h AVE (DMSO = 100) (100 (uM)): 126.655 | MTT 24h, AVE (DMSO as 100) (0.78 uM): 97.8994 | MTT 24h, AVE (DMSO as 100) (1.56 uM): 96.8321 | MTT 24h, 570-650nm, DMSO as 100, single replicate (3.125uM): 84.6917 and 82.6734 and 92.4491 and 113.857 and 84.268 | MTT 24h, 570-650nm, DMSO as 100, ave (3.125uM): 91.5878 | MTT 24h, 570-650nm, DMSO as 100, single replicate (6.25uM): 85.6335 and 89.7131 and 106.9 and 111.896 and 88.988 | MTT 24h, 570-650nm, DMSO as 100, ave (6.25uM): 96.6263 | MTT 24h, 570-650nm, DMSO as 100, single replicate (12.5uM): 81.4488 and 91.9219 and 102.896 and 113.782 and 96.5227 | MTT 24h, 570-650nm, DMSO as 100, ave (12.5uM): 97.3142 | MTT 24h, 570-650nm, DMSO as 100, single replicate (25uM): 77.2963 and 96.4082 and 113.294 and 115.224 and 87.3126 | MTT 24h, 570-650nm, DMSO as 100, ave (25uM): 97.9071 | MTT 24h, 570-650nm, DMSO as 100, single replicate (50uM): 91.2134 and 100.963 and 94.7794 and 115.361 and 101.24 | MTT 24h, 570-650nm, DMSO as 100, ave (50uM): 100.712 | MTT 24h, 570-650nm, DMSO as 100, single replicate (100uM): 94.6456 and 103.228 and 107.83 and 131.616 and 116.582 | MTT 24h, 570-650nm, DMSO as 100, ave (100uM): 110.78 | 570-650nm (MTT absorbance, single wells) (0.78uM): 0.4378 and 0.7486 and 0.8741 and 0.5119 and 0.7887 and 0.8621 | 570-650nm (MTT absorbance, single wells) [1]: 0.9735 and 1.011 and 0.8858 and 1.0444 and 0.9175 and 1.1144 | 570-650nm ave (mean MTT absorbance of 5 wells) (6.25uM): 0.8781 | MTT absorbance with DMSO as 100 (DMSOを 100として), single wells (6.25uM): 79.8684 and 128.626 and 158.904 and 136.433 and 138.026 | 570-650nm ave (mean MTT absorbance of 5 wells) (12.5uM): 1.0183 | 570-650nm (MTT absorbance, single wells) (12.5uM): 0.9745 and 1.0068 and 0.9175 and 1.0063 and 1.0002 and 1.1607 | MTT absorbance with DMSO as 100 (DMSOを 100として), single wells (12.5uM): 126.426 and 115.27 and 145.824 and 125.66 and 126.489 | 570-650nm ave (mean MTT absorbance of 5 wells) (25uM): 1.096 | 570-650nm (MTT absorbance, single wells) (25uM): 1.0789 and 1.1027 and 0.9947 and 1.0822 and 1.1213 and 1.1788 | MTT absorbance with DMSO as 100 (DMSOを 100として), single wells (25uM): 143.89 and 132.256 and 156.734 and 149.089 and 146.616 | 570-650nm ave (mean MTT absorbance of 5 wells) (50uM): 1.152 | 570-650nm (MTT absorbance, single wells) (50uM): 1.148 and 1.1434 and 1.0891 and 1.1437 and 1.0821 and 1.3031 | MTT absorbance with DMSO as 100 (DMSOを 100として), single wells (50uM): 125.321 and 119.338 and 142.787 and 118.571 and 125.288 | 570-650nm ave (mean MTT absorbance of 5 wells) (100uM): 1.192 | 570-650nm (MTT absorbance, single wells) (100uM): 1.3579 and 1.2781 and 1.2394 and 0.9368 and 1.1592 and 1.3488 | MTT absorbance with DMSO as 100 (DMSOを 100として), single wells (100uM): 99.5008 and 131.641 and 143.261 and 123.123 and 135.751
